Assay results published in patent US11130748B2, “Compounds” (MISSION THERAPEUTICS LIMITED, priority 2015, dated 2021).

Target: USP30 (Homo sapiens (Human), UniProt Q70CQ3)
Test: USP30 biochemical IC50 assay
Conditions: not given
Description: USP30 Biochemical IC50 Assay
Dilution plates were prepared at 21 times the final concentration (2100 μM for a final concentration of 100 μM) in 50% DMSO in a 96-well polypropylene V-bottom plate (Greiner #651201). A typical 8-point dilution series to be 100, 30, 10, 3, 1, 0.3, 0.1, 0.03 μM final. Reactions were performed in duplicate in black 384 well plates (small volume, Greiner 784076) in a final reaction volume of 21 μl. Either 1 μl of 50% DMSO or diluted compound was added to the plate. USP30 was diluted in reaction buffer (40 mM Tris, pH 7.5, 0.005% Tween 20, 0.5 mg/ml BSA, 5 mM beta-mercaptoethanol) to the equivalent of 0.05 μl/well and 10 μl of diluted USP30 was added to the compound. Enzyme and compound were incubated for 30 min at room temp. Reactions were initiated by the addition of 50 nM of TAMRA labelled peptide linked to ubiquitin via an iso-peptide bond as fluorescence polarisation substrate. Reactions were read immediately after addition of substrate and following a 2 hr incubation at room temperature. Readings were performed on a Pherastar Plus (BMG Labtech). λ Excitation 540 nm; λ Emission 590 nm.

Chain of USP30 (Q70CQ3 57-517): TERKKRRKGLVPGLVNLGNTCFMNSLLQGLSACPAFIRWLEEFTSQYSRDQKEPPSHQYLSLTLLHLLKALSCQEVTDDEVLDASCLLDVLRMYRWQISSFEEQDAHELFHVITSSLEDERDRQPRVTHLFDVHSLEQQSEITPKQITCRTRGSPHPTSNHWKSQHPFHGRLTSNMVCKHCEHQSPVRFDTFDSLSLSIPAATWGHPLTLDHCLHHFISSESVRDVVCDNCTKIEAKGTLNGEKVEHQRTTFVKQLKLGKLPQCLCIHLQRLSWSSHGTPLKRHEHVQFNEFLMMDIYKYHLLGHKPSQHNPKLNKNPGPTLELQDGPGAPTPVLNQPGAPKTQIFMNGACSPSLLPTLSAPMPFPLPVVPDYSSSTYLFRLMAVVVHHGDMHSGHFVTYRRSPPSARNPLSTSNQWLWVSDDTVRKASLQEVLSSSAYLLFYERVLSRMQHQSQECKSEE

Row | SMILES | IC50 [nM]
1 | N#CN1CCC(CNC(=O)c2nn(Cc3ccc(Cl)cc3Cl)c3ccccc23)C1 (centres unmarked) [Example 28, N-((1-Cyanopyrrolidin-3-yl)methyl)-1-(2,4-dichlorobenzyl)-1H-indazole-3-carboxamide] | < 100

Same assay, conditions: fluorescence polarisation, TAMRA labelled peptide linked to ubiquitin; 30 min pre-incubation, 2 hr read; read-out: IC50 range

Row | SMILES | IC50 [nM]
2 | CC(Nc1cc2cc(C#N)ccc2cn1)C1CCN(C#N)C1 (centres unmarked) [Example 51, 3-((1-(1-Cyanopyrrolidin-3-yl)ethyl)amino)isoquinoline-6-carbonitrile] | 1000 to 10000
3 | CNC(=O)c1ccc2cnc(NCC3CCN(C#N)C3)cc2c1 (centres unmarked) [Example 17, 3-(((1-Cyano-pyrrolidin-3-yl)methyl)amino)-N-methylisoquinoline-6-carboxamide] | 1000 to 10000
4 | N#CN1CC[C@H](CNC(=O)c2cc(-c3ccccc3)ccn2)C1 [Example 59] | 100 to 1000
5 | N#CN1CCC(CNc2nccc3ccccc23)C1 (centres unmarked) [Example 3, 3-((Isoquinolin-1-ylamino)methyl)pyrrolidine-1-carbonitrile] | 1000 to 10000
6 | N#CN1CC[C@H](CNC(=O)c2nc3ccccc3[nH]2)C1 [Example 56] | 1000 to 10000
7 | N#CN1C[C@H]2CN(c3ncc(-c4ccccc4)s3)C(=O)[C@H]2C1 [Example 54, (3aR,6aS)-4-Oxo-5-(5-phenylthiazol-2-yl)hexahydropyrrolo[3,4-c]pyrrole-2(1H)-carbonitrile] | 1000 to 10000
8 | N#CN1CC[C@H](CNC(=O)c2cn3cc(Cl)ccc3n2)C1 [Example 35, (R)-6-Chloro-N-((1-cyanopyrrolidin-3-yl)methyl)imidazo[1,2-a]pyridine-2-carboxamide] | 1000 to 10000
9 | N#CN1CCC(CNc2cccc(-c3ccccc3)n2)C1 (centres unmarked) [Example 7, 3-(((6-Phenylpyridin-2-yl)amino)methyl)pyrrolidine-1-carbonitrile] | 1000 to 10000
10 | Cn1cc(-c2ccc3nc(C(=O)NCC4CCN(C#N)C4)cn3c2)cn1 (centres unmarked) [Example 39, N-((1-Cyanopyrrolidin-3-yl)methyl)-6-(1-methyl-1H-pyrazol-4-yl)imidazo[1,2-a]pyridine-2-carboxamide] | 1000 to 10000
11 | CN(CC1CCN(C#N)C1)C(=O)Cc1ccc(-c2ccccc2)cc1 (centres unmarked) [Example 37, 2-([1,1′-biphenyl]-4-yl)-N-((1-cyanopyrrolidin-3-yl)methyl)-N-methylacetamide] | 100 to 1000
12 | N#CN1CCC(CNc2nc3ccc(-c4cn[nH]c4)cc3s2)C1 (centres unmarked) [Example 11, 3-(((6-(1H-Pyrazol-4-yl)benzo[d]thiazol-2-yl)amino)methyl)pyrrolidine-1-carbonitrile] | 100 to 1000
13 | Cc1ccccc1-c1cc(C(=O)NCC2CCN(C#N)C2)[nH]n1 (centres unmarked) [Example 25, N-((1-Cyanopyrrolidin-3-yl)methyl)-3-(o-tolyl)-1H-pyrazole-5-carboxamide] | 100 to 1000
14 | N#CN1CC[C@H](CNC(=O)c2cn3cc(-c4cn[nH]c4)ccc3n2)C1 [Example 75, (R)—N-((1-Cyanopyrrolidin-3-yl)methyl)-6-(H-pyrazol-4-yl)imidazo[1,2-a]pyridine-2-carboxamide] | 1000 to 10000
15 | N#CN1CC[C@H](CNC(=O)c2cc3ccccc3cn2)C1 [Example 57] | 1000 to 10000
16 | Cc1nc(-c2cccc(S(=O)(=O)N(C)CC3CCN(C#N)C3)c2)cs1 (centres unmarked) [Example 46, N-((1-Cyanopyrrolidin-3-yl)methyl)-N-methyl-3-(2-methylthiazol-4-yl)-benzenesulfonamide] | 100 to 1000
17 | COc1cccc(-n2cnc(C(=O)NC[C@H]3CCN(C#N)C3)c2)c1 [Example 74, (R)—N-((1-Cyanopyrrolidin-3-yl)methyl)-1-(3-methoxyphenyl)-1H-imidazole-4-carboxamide] | 100 to 1000
18 | CC(Nc1cc2ccccc2cn1)C1CCN(C#N)C1 (centres unmarked) [Example 50, 3-(1-(Isoquinolin-3-ylamino)ethyl)pyrrolidine-1-carbonitrile] | 1000 to 10000
19 | N#CN1CC[C@H](CNc2ncc(-c3ccccc3)s2)C1 [Example 9, (R)-3-(((5-Phenylthiazol-2-yl)amino)methyl)pyrrolidine-1-carbonitrile] | < 100
20 | COc1ccc(/C=C/C(=O)NCC2CCN(C#N)C2)c(F)c1 (centres unmarked) [Example 32, (E)-N-((1-Cyanopyrrolidin-3-yl)methyl)-3-(2-fluoro-4-methoxyphenyl)acrylamide] | 100 to 1000
21 | N#CN1CC[C@H](CNC(=O)c2cn(Cc3ccccc3)cn2)C1 [Example 78, (R)-1-Benzyl-N-((1-cyanopyrrolidin-3-yl)methyl)-1H-imidazole-4-carboxamide] | 100 to 1000
22 | N#CN1CC[C@H](CNC(=O)c2cn(CC3CC3)cn2)C1 [Example 79, (R)—N-((1-Cyanopyrrolidin-3-yl)methyl)-1-(cyclopropylmethyl)-1H-imidazole-4-carboxamide] | 1000 to 10000
23 | N#Cc1ccc2cnc(NCC3CCN(C#N)C3)cc2c1 (centres unmarked) [Example 16, 3-(((1-Cyano-pyrrolidin-3-yl)methyl)amino) isoquinoline-6-carbonitrile] | 1000 to 10000

Row | SMILES | IC50 [nM]
24 | N#CN1CCC(CNC(=O)Nc2cccc(Cc3ccccc3)c2)C1 (centres unmarked) [Example 43, 1-(3-Benzylphenyl)-3-((1-cyanopyrrolidin-3-yl)methyl)urea] | 100 to 1000
25 | N#CC(Nc1nc2ccccc2s1)C1CCN(C#N)C1 (centres unmarked) [Example 52, 3-((Benzo[d]thiazol-2-ylamino)(cyano)methyl)pyrrolidine-1-carbonitrile] | 100 to 1000
26 | N#CN1CCC(CNC(=O)c2ccc(S(=O)(=O)Nc3ccccc3)cc2)C1 (centres unmarked) [Example 30, N-((1-Cyanopyrrolidin-3-yl)methyl)-4-(N-phenylsulfamoyl)benzamide] | 100 to 1000
27 | N#CN1CC[C@H](CNC(=O)c2ccc(-c3ccccc3)cn2)C1 [Example 60] | 100 to 1000
28 | CC(Nc1nc2ccc(-c3cn[nH]c3)cc2s1)C1CCN(C#N)C1 (centres unmarked) [Example 49, 3-(1-((6-(1H-Pyrazol-4-yl)benzo[d]thiazol-2-yl)amino)ethyl)pyrrolidine-1-carbonitrile] | 100 to 1000
29 | N#CN1CCC(CNc2ccc(-c3ccccc3)cn2)C1 (centres unmarked) [Example 6, 3-(((5-Phenylpyridin-2-yl)amino)methyl)pyrrolidine-1-carbonitrile] | 1000 to 10000
30 | Cc1ccc(F)c(NC(=O)NCC2CCN(C#N)C2)c1 (centres unmarked) [Example 42, 1-((1-Cyanopyrrolidin-3-yl)methyl)-3-(2-fluoro-5-methylphenyl)urea] | 100 to 1000
31 | Cc1nn(C)cc1-c1cccc(NCC2CCN(C#N)C2)c1 (centres unmarked) [Example 13, 3-(((3-(1,3-dimethyl-1H-pyrazol-4-yl)phenyl)amino)methyl)pyrrolidine-1-carbonitrile] | 1000 to 10000
32 | Cc1nn(C)cc1-c1ccc(NCC2CCN(C#N)C2)c(F)c1 (centres unmarked) [Example 15, 3-(((4-(1,3-Dimethyl-1H-pyrazol-4-yl)-2-fluorophenyl)amino)methyl)pyrrolidine-1-carbonitrile] | 1000 to 10000
33 | N#CN1CCC(CNc2nc3ccc(F)cc3s2)C1 (centres unmarked) [Example 2, 3-(((6-Fluorobenzo[d]thiazol-2-yl)amino)methyl)pyrrolidine-1-carbonitrile] | 1000 to 10000
34 | N#CN1CCC(CNC(=O)Nc2cccc(Cl)c2)C1 (centres unmarked) [Example 41, 1-(3-Chlorophenyl)-3-((1-cyanopyrrolidin-3-yl)methyl)urea] | 100 to 1000
35 | N#CN1CCC(CNc2ncccc2-c2ccccc2)C1 (centres unmarked) [Example 4, 3-(((3-Phenylpyridin-2-yl)amino)methyl)pyrrolidine-1-carbonitrile] | 10000 to 100000
36 | COc1ccccc1-n1cnc(C(=O)NC[C@H]2CCN(C#N)C2)c1 [Example 73, (R)—N-((1-Cyanopyrrolidin-3-yl)methyl)-1-(2-methoxyphenyl)-1H-imidazole-4-carboxamide] | 100 to 1000
37 | N#CN1CC[C@H](CNC(=O)c2cn3ccc(C4CC4)cc3n2)C1 [Example 77, (R)—N-((1-Cyanopyrrolidin-3-yl)methyl)-7-cyclopropylimidazo[1,2-a]pyridine-2-carboxamide] | 100 to 1000
38 | N#Cc1cccc(-c2nnc(C(=O)NC[C@H]3CCN(C#N)C3)o2)c1 [Example 68, (R)-5-(3-Cyanophenyl)-N-((1-cyanopyrrolidin-3-yl)methyl)-1,3,4-oxadiazole-2-carboxamide] | < 100
39 | N#CN1CCC(CNC(=O)c2cc(N3CCCC3)ccn2)C1 (centres unmarked) [Example 27, N-((1-Cyanopyrrolidin-3-yl)methyl)-4-(pyrrolidin-1-yl)picolinamide] | 100 to 1000
40 | N#CN1CC[C@H](CNC(=O)c2cc3ccccn3n2)C1 [Example 36, (R)—N-((1-Cyanopyrrolidin-3-yl)methyl)pyrazolo[1,5-a]pyridine-2-carboxamide] | 1000 to 10000
41 | CN(CC1CCN(C#N)C1)S(=O)(=O)c1ccc(Oc2ccc(C(F)(F)F)cn2)cc1 (centres unmarked) [Example 47, N-((1-Cyanopyrrolidin-3-yl)methyl)-N-methyl-4-((5-(trifluoromethyl)pyridin-2-yl)oxy)benzenesulfonamide] | 100 to 1000
42 | N#CN1CCC(CNC(=O)c2ccc(-c3ccncc3)cc2)C1 (centres unmarked) [Example 24, N-((1-Cyanopyrrolidin-3-yl)methyl)-4-(pyridin-4-yl)benzamide] | 100 to 1000
43 | N#Cc1cccc(-c2nnc(C(=O)NC[C@@H]3CCN(C#N)C3)o2)c1 [Example 69, (S)-5-(3-Cyanophenyl)-N-((1-cyanopyrrolidin-3-yl)methyl)-1,3,4-oxadiazole-2-carboxamide] | < 100
44 | N#CN1CC[C@@H](CNc2ncc(-c3ccccc3)s2)C1 [Example 10, (S)-3-(((5-Phenylthiazol-2-yl)amino)methyl)pyrrolidine-1-carbonitrile] | 100 to 1000
